# Target: hQC (Homo sapiens, UniProt Q16769)
# Assay: Inhibitor assay for glutaminyl cyclase activity (fluorometric, H-Gln-βNA / H-Gln-AMC)
# Assay type: biochemical
# Settings: compound from preparative synthesis, purified
# Method in brief: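 Ki values came from fitting progress curves to a competitive inhibition model; rapid screens used 4 mM inhibitor with substrate at KM. QC activity was read at 30 °C via auxiliary pyroglutamyl aminopeptidase releasing βNA (0.2 mM H-Gln-βNA, 0.2 M Tris pH 8.0, 20 mM EDTA) or AMC (0.05 M Tris pH 8.0, 5 mM EDTA).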
# hQC, sequence (Q16769 29-361): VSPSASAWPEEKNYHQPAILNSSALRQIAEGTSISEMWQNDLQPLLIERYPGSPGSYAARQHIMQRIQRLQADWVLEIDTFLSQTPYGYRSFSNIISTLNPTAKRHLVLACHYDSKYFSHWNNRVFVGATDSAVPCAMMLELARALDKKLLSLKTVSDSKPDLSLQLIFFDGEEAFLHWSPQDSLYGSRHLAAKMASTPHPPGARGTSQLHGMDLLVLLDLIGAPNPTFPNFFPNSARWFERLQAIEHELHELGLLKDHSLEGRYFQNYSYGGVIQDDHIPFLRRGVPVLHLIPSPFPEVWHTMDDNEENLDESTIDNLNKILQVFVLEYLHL
row,Ki,Compound
1,0.00331 µM,"O=C(C1=C(O)C(=O)N(c2ccc3[nH]cnc3c2)C1c1cccc(F)c1F)c1ccccc1 (stereo not drawn) [Compound 466, 1-(1H-benzo[d]imidazol-5-yl)-4-benzoyl-5-(2,3-difluorophenyl)-3-hydroxy-1H-pyrrol-2(5H)-one]"

# Same assay, conditions: compound from preparative synthesis, purified; read-out: IC50 hQC
row,IC50,Compound
1,1.23 µM,"COc1ccc(C2C(c3ccccc3)=C(O)C(=O)N2CCCn2ccnc2)cc1 (stereo not drawn) [Compound 86, 3-Hydroxy-1-(3-imidazol-1-yl-propyl)-5-(4-methoxy-phenyl)-4-phenyl-1,5-dihydro-pyrrol-2-one]"
2,0.266 µM,"Cc1ccc(C2C(c3c[nH]c4ccccc34)=C(O)C(=O)N2CCCn2ccnc2)cc1 (stereo not drawn) [Compound 114, 3-Hydroxy-1-(3-imidazol-1-yl-propyl)-4-(1H-indol-3-yl)-5-p-tolyl-1,5-dihydro-pyrrol-2-one]"
3,0.64 µM,"O=C1C(O)=C(c2ccccc2)C(c2ccc3[nH]ccc3c2)N1CCCn1ccnc1 (stereo not drawn) [Compound 85, 3-Hydroxy-1-(3-imidazol-1-yl-propyl)-5-(1H-indol-5-yl)-4-phenyl-1,5-dihydro-pyrrol-2-one]"
4,0.588 µM,"CCCCCC1=C(O)C(=O)N(CCCn2ccnc2)C1c1cccs1 (stereo not drawn) [Compound 210, 3-Hydroxy-1-(3-imidazol-1-yl-propyl)-4-pentyl-5-thiophen-2-yl-1,5-dihydro-pyrrol-2-one]"

# Same assay, conditions: read-out: IC50
row,Compound,IC50
1,"O=C1C(O)=C(c2ccccc2)C(c2cccc(Cl)c2)N1CCCn1ccnc1 (stereo not drawn) [Compound 109, 5-(3-Chloro-phenyl)-3-hydroxy-1-(3-imidazol-1-yl-propyl)-4-phenyl-1,5-dihydro-pyrrol-2-one]",0.4 µM
2,"CCCCCC1=C(O)C(=O)N(CCCn2ccnc2)C1C(F)(F)F (stereo not drawn) [Compound 203, 3-Hydroxy-1-(3-imidazol-1-yl-propyl)-4-pentyl-5-trifluoromethyl-1,5-dihydro-pyrrol-2-one]",0.04 µM
3,"COc1ccc(C2C(c3ccccc3)=C(O)C(=O)N2CCCn2ccnc2)cc1 (stereo not drawn) [Compound 86, 3-Hydroxy-1-(3-imidazol-1-yl-propyl)-5-(4-methoxy-phenyl)-4-phenyl-1,5-dihydro-pyrrol-2-one]",0.04 µM
4,"COc1ccc(C2C(C(C)C)=C(O)C(=O)N2CCCn2ccnc2)cc1 (stereo not drawn) [Compound 59, 3-Hydroxy-1-(3-imidazol-1-yl-propyl)-4-isopropyl-5-(4-methoxy-phenyl)-1,5-dihydro-pyrrol-2-one]",0.4 µM
5,"O=C1C(O)=C(c2ccccc2)C(c2ccncc2)N1CCCn1ccnc1 (stereo not drawn) [Compound 102, 3-Hydroxy-1-(3-imidazol-1-yl-propyl)-4-phenyl-5-pyridin-4-yl-1,5-dihydro-pyrrol-2-one]",8.5 µM
6,"O=C1C(O)=C(c2cccc(O)c2)C(c2ccc3[nH]ccc3c2)N1CCCn1ccnc1 (stereo not drawn) [Compound 12, 3-Hydroxy-4-(3-hydroxy-phenyl)-1-(3-imidazol-1-yl-propyl)-5-(1H-indol-5-yl)-1,5-dihydro-pyrrol-2-one]",1.3 µM
7,"Cc1ccc(C2C(c3c[nH]c4ccccc34)=C(O)C(=O)N2CCCn2ccnc2)cc1 (stereo not drawn) [Compound 114, 3-Hydroxy-1-(3-imidazol-1-yl-propyl)-4-(1H-indol-3-yl)-5-p-tolyl-1,5-dihydro-pyrrol-2-one]",0.04 µM
8,"CCC1C(c2ccc(O)cc2)=C(O)C(=O)N1CCCn1ccnc1 (stereo not drawn) [Compound 178, 5-Ethyl-3-hydroxy-4-(4-hydroxy-phenyl)-1-(3-imidazol-1-yl-propyl)-1,5-dihydro-pyrrol-2-one]",0.4 µM
9,"O=C1C(O)=C(c2ccccc2)C(c2cccs2)N1CCCn1ccnc1 (stereo not drawn) [Compound 103, 3-Hydroxy-1-(3-imidazol-1-yl-propyl)-4-phenyl-5-thiophen-2-yl-1,5-dihydro-pyrrol-2-one]",1.3 µM
10,"CC(C)/C=C/C1C(c2cccc(O)c2)=C(O)C(=O)N1CCCn1ccnc1 (stereo not drawn) [Compound 10, 3-Hydroxy-4-(3-hydroxy-phenyl)-1-(3-imidazol-1-yl-propyl)-5-(3-methyl-but-1-enyl)-1,5-dihydro-pyrrol-2-one]",5.8 µM
11,"CCCCCC1=C(O)C(=O)N(CCCn2ccnc2)C1Cc1ccccc1 (stereo not drawn) [Compound 206, 5-Benzyl-3-hydroxy-1-(3-imidazol-1-yl-propyl)-4-pentyl-1,5-dihydro-pyrrol-2-one]",0.4 µM
12,"Cc1ccc2c(C3C(c4ccccc4)=C(O)C(=O)N3CCCn3ccnc3)c[nH]c2c1 (stereo not drawn) [Compound 95, 3-Hydroxy-1-(3-imidazol-1-yl-propyl)-5-(6-methyl-1H-indol-3-yl)-4-phenyl-1,5-dihydro-pyrrol-2-one]",0.04 µM
13,"O=C1C(O)=C(c2ccc(O)cc2)C(c2ccc(CO)o2)N1CCCn1ccnc1 (stereo not drawn) [Compound 161, 3-Hydroxy-5-(5-hydroxymethyl-furan-2-yl)-4-(4-hydroxy-phenyl)-1-(3-imidazol-1-yl-propyl)-1,5-dihydro-pyrrol-2-one]",0.4 µM
14,"O=C1C(O)=C(c2ccccc2)C(Cc2ccccc2)N1CCCn1ccnc1 (stereo not drawn) [Compound 99, 5-Benzyl-3-hydroxy-1-(3-imidazol-1-yl-propyl)-4-phenyl-1,5-dihydro-pyrrol-2-one]",0.04 µM
15,"O=C1C(O)=C(c2ccccc2)C(c2ccc3[nH]ccc3c2)N1CCCn1ccnc1 (stereo not drawn) [Compound 85, 3-Hydroxy-1-(3-imidazol-1-yl-propyl)-5-(1H-indol-5-yl)-4-phenyl-1,5-dihydro-pyrrol-2-one]",0.04 µM
16,"CCCCCC1=C(O)C(=O)N(CCCn2ccnc2)C1c1c[nH]c2ccccc12 (stereo not drawn) [Compound 204, 3-Hydroxy-1-(3-imidazol-1-yl-propyl)-5-(1H-indol-3-yl)-4-pentyl-1,5-dihydro-pyrrol-2-one]",0.04 µM
17,"O=C1C(O)=C(c2cccc(O)c2)C(c2c[nH]c3ccccc23)N1CCCn1ccnc1 (stereo not drawn) [Compound 18, 3-Hydroxy-4-(3-hydroxy-phenyl)-1-(3-imidazol-1-yl-propyl)-5-(1H-indol-3-yl)-1,5-dihydro-pyrrol-2-one]",9.4 µM
18,"CCCCCC1=C(O)C(=O)N(CCCn2ccnc2)C1c1cccs1 (stereo not drawn) [Compound 210, 3-Hydroxy-1-(3-imidazol-1-yl-propyl)-4-pentyl-5-thiophen-2-yl-1,5-dihydro-pyrrol-2-one]",0.04 µM
19,"O=C1C(O)=C(c2c[nH]c3ccccc23)C(c2ccncc2)N1CCCn1ccnc1 (stereo not drawn) [Compound 136, 3-Hydroxy-1-(3-imidazol-1-yl-propyl)-4-(1H-indol-3-yl)-5-pyridin-4-yl-1,5-dihydro-pyrrol-2-one]",0.04 µM
20,"CCCCCC1=C(O)C(=O)N(CCCn2ccnc2)C1c1ccncc1 (stereo not drawn) [Compound 209, 3-Hydroxy-1-(3-imidazol-1-yl-propyl)-4-pentyl-5-pyridin-4-yl-1,5-dihydro-pyrrol-2-one]",0.04 µM

# The next lines start with the values.
row,IC50,Compound
1,4.18 µM,"CC1=C(O)C(=O)N(c2ccc3[nH]cnc3c2)C1c1c(F)ccc(Cl)c1F (stereo not drawn) [Compound 412, 1-(1H-Benzoimidazol-5-yl)-5-(3-chloro-2,6-difluoro-phenyl)-3-hydroxy-4-methyl-1,5-dihydro-pyrrol-2-one]"
2,9.22 µM,"CC1=C(O)C(=O)N(c2ccc3[nH]cnc3c2)C1c1cc(C)c(C)o1 (stereo not drawn) [Compound 394, 1-(1H-Benzoimidazol-5-yl)-5-(4,5-dimethyl-furan-2-yl)-3-hydroxy-4-methyl-1,5-dihydro-pyrrol-2-one]"
3,1.93 µM,"CC1=C(O)C(=O)N(c2ccc3[nH]cnc3c2)C1c1ccccc1F (stereo not drawn) [Compound 386, 1-(1H-Benzoimidazol-5-yl)-5-(2-fluoro-phenyl)-3-hydroxy-4-methyl-1,5-dihydro-pyrrol-2-one]"
4,0.04 µM,"CCC1=C(O)C(=O)N(CCCn2ccnc2)C1c1ccccc1O (stereo not drawn) [Compound 230, 4-Ethyl-3-hydroxy-5-(2-hydroxy-phenyl)-1-(3-imidazol-1-yl-propyl)-1,5-dihydro-pyrrol-2-one]"
5,2.56 µM,"CC(C)CC(=O)C1=C(O)C(=O)N(c2ccc3[nH]cnc3c2)C1CCC(=O)O (stereo not drawn) [Compound 447, 3-[1-(1H-Benzoimidazol-5-yl)-4-hydroxy-3-(3-methyl-butyryl)-5-oxo-2,5-dihydro-1H-pyrrol-2-yl]-propionic acid]"
6,0.0398 µM,"O=C(C1=C(O)C(=O)N(c2ccc3[nH]cnc3c2)C1c1cccc(F)c1F)c1ccccc1 (stereo not drawn) [Compound 466, 1-(1H-benzo[d]imidazol-5-yl)-4-benzoyl-5-(2,3-difluorophenyl)-3-hydroxy-1H-pyrrol-2(5H)-one]"
7,1.48 µM,"CC(C)C1=C(O)C(=O)N(c2ccc3[nH]cnc3c2)C1c1ccc(O)c(Br)c1 (stereo not drawn) [Compound 377, 1-(1H-Benzoimidazol-5-yl)-5-(3-bromo-4-hydroxy-phenyl)-3-hydroxy-4-isopropyl-1,5-dihydro-pyrrol-2-one]"
8,5.35 µM,"CC(C)CC(=O)C1=C(O)C(=O)N(c2ccc3[nH]cnc3c2)C1c1cn(C)c2ccccc12 (stereo not drawn) [Compound 278, 1-(1H-Benzoimidazol-5-yl)-3-hydroxy-4-(3-methyl-butyryl)-5-(1-methyl-1H-indol-3-yl)-1,5-dihydro-pyrrol-2-one]"
9,0.58 µM,"Cc1cccc(C2C(C(=O)CC(C)C)=C(O)C(=O)N2c2ccc3[nH]cnc3c2)c1 (stereo not drawn) [Compound 458, 1-(1H-Benzoimidazol-5-yl)-3-hydroxy-4-(3-methyl-butyryl)-5-m-tolyl-1,5-dihydro-pyrrol-2-one]"
10,0.13 µM,"CC(=O)C1=C(O)C(=O)N(c2ccc3[nH]cnc3c2)C1c1cccc(Cl)c1 (stereo not drawn) [Compound 301, 4-Acetyl-1-(1H-benzoimidazol-5-yl)-5-(3-chloro-phenyl)-3-hydroxy-1,5-dihydro-pyrrol-2-one]"
11,0.85 µM,"O=C(C1=C(O)C(=O)N(c2ccc3[nH]cnc3c2)C1)C1CCCCC1 [Compound 441, 1-(1H-Benzoimidazol-5-yl)-4-cyclohexanecarbonyl-3-hydroxy-1,5-dihydro-pyrrol-2-one]"
12,4 µM,"CCCC(=O)C1=C(O)C(=O)N(c2ccc3[nH]cnc3c2)C1c1cc[nH]n1 (stereo not drawn) [Compound 378, 1-(1H-Benzoimidazol-5-yl)-4-butyryl-3-hydroxy-5-(1H-pyrazol-3-yl)-1,5-dihydro-pyrrol-2-one]"
13,1.03 µM,"CC(C)(C)C(=O)C1=C(O)C(=O)N(c2ccc3[nH]cnc3c2)C1c1ccc2cccc(O)c2n1 (stereo not drawn) [Compound 310, 1-(1H-Benzoimidazol-5-yl)-4-(2,2-dimethyl-propionyl)-3-hydroxy-5-(8-hydroxy-quinolin-2-yl)-1,5-dihydro-pyrrol-2-one]"
14,5.71 µM,"Cc1[nH]c2ccccc2c1C1C(c2c[nH]c3ccccc23)=C(O)C(=O)N1c1ccc2[nH]cnc2c1 (stereo not drawn) [Compound 285, 1-(1H-Benzoimidazol-5-yl)-3-hydroxy-4-(1H-indol-3-yl)-5-(2-methyl-1H-indol-3-yl)-1,5-dihydro-pyrrol-2-one]"
15,8.05 µM,"CC(C)C1=C(O)C(=O)N(c2ccc3[nH]cnc3c2)C1c1c(F)ccc(Cl)c1F (stereo not drawn) [Compound 365, 1-(1H-Benzoimidazol-5-yl)-5-(3-chloro-2,6-difluoro-phenyl)-3-hydroxy-4-isopropyl-1,5-dihydro-pyrrol-2-one]"
16,0.31 µM,"CC(=O)C1=C(O)C(=O)N(c2ccc3[nH]cnc3c2)C1c1cc(F)cc(F)c1F (stereo not drawn) [Compound 261, 4-Acetyl-1-(1H-benzoimidazol-5-yl)-3-hydroxy-5-(2,3,5-trifluoro-phenyl)-1,5-dihydro-pyrrol-2-one]"
17,9.94 µM,"CCCC1=C(O)C(=O)N(c2ccc3[nH]cnc3c2)C1c1ccc(C(=O)O)o1 (stereo not drawn) [Compound 292, 5-[1-(1H-Benzoimidazol-5-yl)-4-hydroxy-5-oxo-3-propyl-2,5-dihydro-1H-pyrrol-2-yl]-furan-2-carboxylic acid]"

# Source: US8278345B2, “Inhibitors of glutaminyl cyclase” (Probiodrug AG, priority 2006, dated 2012)
